# Results published in US10308660B2, “Compounds and compositions for inhibiting the activity of SHP2” (Novartis AG, priority 2015, dated 2019).
# Target: SHP2 (Homo sapiens (Human), UniProt Q06124)
# Assay: SHP2 allosteric inhibition assay (DiFMUP prompt fluorescence)
# Type: biochemical
# Settings: 0.5 nM SHP2 activated with 0.5 μM peptide IRS1_pY1172(dPEG8)pY1222; substrate DiFMUP; 25° C.
row,SMILES,IC50 [µM]
1,N[C@@H]1CCCC12CCN(c1ncc(Sc3cccnc3C(F)(F)F)c(=O)[nH]1)CC2 [Example 92],0.092
2,CC1(CN)CCN(c2ncc(Sc3cccc(Cl)c3Cl)c(=O)[nH]2)CC1 [Example 93],0.065
3,CC1(CN)CCN(c2ncc(Sc3ccccc3Cl)c(=O)[nH]2)CC1 [Example 94],0.178
4,CCOc1nccc(Sc2cnc(N3CCC4(CC3)CO[C@@H](C)[C@H]4N)[nH]c2=O)c1Cl [Example 95],0.023
5,"Cn1c(N2CCC(C)(CN)CC2)ncc(Sc2cccc(Cl)c2Cl)c1=O [Example 98, 2-(4-(aminomethyl)-4-methylpiperidin-1-yl)-5-((2,3-dichlorophenyl)thio)-3-methylpyrimidin-4(3H)-one]",0.068
6,Cn1c(N2CCC(C)(CN)CC2)ncc(Sc2ccccc2Cl)c1=O [Example 99],0.375
7,Cn1c(N2CCC(C)(CN)CC2)ncc(Sc2cccnc2C(F)(F)F)c1=O [Example 100],0.631
8,Cn1c(N2CCC3(CC2)COC[C@H]3N)ncc(Sc2cccc(Cl)c2Cl)c1=O [Example 101],0.037
9,Cn1c(N2CCC3(CC[C@@H]3N)CC2)ncc(Sc2cccc(Cl)c2Cl)c1=O [Example 104],0.109
10,COc1cccc(Sc2cnc(N3CCC4(CC3)CO[C@@H](C)[C@H]4N)n(C)c2=O)c1Cl [Example 106],0.03
11,C[C@@H]1OCC2(CCN(c3ncc(Sc4ccnc(NC5CC5)c4Cl)c(=O)n3C)CC2)[C@@H]1N [Example 107],0.146
12,Cn1c(N2CCC(C)(CN)CC2)ncc(Sc2ccccc2C(F)(F)F)c1=O [Example 108],0.5
13,Cn1c(N2CCC3(CCC[C@H]3N)CC2)ncc(Sc2cccc(Cl)c2Cl)c1=O [Example 109],0.026
14,C[C@@H]1OCC2(CCN(c3ncc(Sc4ccnc(N)c4Cl)c(=O)n3C)CC2)[C@@H]1N [Example 113],0.035
15,C[C@H]1C[C@@H](N)C2(CCN(c3ncc(Sc4cccnc4C(F)(F)F)c(=O)n3C)CC2)C1 [Example 114],0.05
16,Cn1c(N2CCC(C)(CN)CC2)ncc(Sc2ccnc(Cl)c2Cl)c1=O [Example 115],0.083
17,"Cn1c(N2CCC(C)(CN)CC2)ccc(Sc2cccc(Cl)c2Cl)c1=O [Example 116, 6-(4-(aminomethyl)-4-methylpiperidin-1-yl)-3-((2,3-dichlorophenyl)thio)-1-methylpyridin-2(1H)-one]",1.62
18,"CC1(CN)CCN(c2ccc(Sc3cccc(Cl)c3Cl)c(=O)[nH]2)CC1 [Example 118, 6-(4-(aminomethyl)-4-methylpiperidin-1-yl)-3-((2,3-dichlorophenyl)thio)pyridin-2(1H)-one]",0.108
19,COc1nccc(Sc2ccc(N3CCC4(CC3)CO[C@@H](C)[C@H]4N)[nH]c2=O)c1Cl [Example 119],0.083
20,"Cc1nc(N2CCC3(CC2)CO[C@@H](C)[C@H]3N)n(C)c(=O)c1Sc1ccnc(N)c1Cl [Example 121, 5-((2-amino-3-chloropyridin-4-yl)thio)-2-((3S,4S)-4-amino-3-methyl-2-oxa-8-azaspiro[4.5]decan-8-yl)-3,6-dimethylpyrimidin-4(3H)-one]",0.06
21,Cc1nc(N2CCC3(CC2)CO[C@@H](C)[C@H]3N)n(C)c(=O)c1Sc1cccnc1C(F)(F)F [Example 122],0.068
22,C[C@@H]1OCC2(CCN(c3nc(N)c(-c4ccccc4)c(=O)n3C)CC2)[C@@H]1N [Example 138],0.024
23,C[C@@H]1OCC2(CCN(c3nc(N)c(-c4ccc(OC5CC5)cc4)c(=O)n3C)CC2)[C@@H]1N [Example 139],0.025
24,C[C@H]1C[C@@H](N)C2(CCN(c3nc(N)c(-c4ccccc4)c(=O)n3C)CC2)C1 [Example 140],0.025
25,C[C@@H]1OCC2(CCN(c3nc(N)c(-c4ccc(Cl)c(F)c4)c(=O)n3C)CC2)[C@@H]1N [Example 141],0.026
26,C[C@@H]1OCC2(CCN(c3nc(N)c(-c4ccc(Oc5ccccc5)cc4)c(=O)n3C)CC2)[C@@H]1N [Example 142],0.027
27,C[C@@H]1OCC2(CCN(c3nc(N)c(-c4cccc(F)c4F)c(=O)n3C)CC2)[C@@H]1N [Example 143],0.028
28,CC[C@@H]1OCC2(CCN(c3nc(N)c(-c4ccccc4)c(=O)n3C)CC2)[C@@H]1N [Example 144],0.034

# The next compounds have a lower IC50 than those just listed; values first:
row,IC50 [µM],SMILES
1,0.022,Cn1c(N2CCC3(CC2)CC(F)(F)C[C@H]3N)nc(N)c(-c2cccc(Cl)c2Cl)c1=O [Example 137]
2,0.02,C[C@@H]1OCC2(CCN(c3nc(N)c(-c4ccc(Cl)cc4)c(=O)n3C)CC2)[C@@H]1N [Example 136]
3,0.019,C[C@@H]1OCC2(CCN(c3ncc(Sc4cc(N)nc(Cl)c4Cl)c(=O)n3C)CC2)[C@@H]1N [Example 112]
4,0.019,C[C@H]1C[C@@H](N)C2(CCN(c3nc(N)c(-c4ccc(SC(F)(F)F)cc4)c(=O)n3C)CC2)C1 [Example 134]
5,0.019,C[C@@H]1OCC2(CCN(c3nc(N)c(-c4cccc(Cl)c4)c(=O)n3C)CC2)[C@@H]1N [Example 135]
6,0.017,C[C@@H]1OCC2(CCN(c3nc(N)c(-c4ccc(F)c(F)c4)c(=O)n3C)CC2)[C@@H]1N [Example 133]
7,0.016,C[C@H]1C[C@@H](N)C2(CCN(c3ncc(Sc4cc(N)ncc4Cl)c(=O)n3C)CC2)C1 [Example 110]
8,0.016,CC(C)c1ccc(-c2c(N)nc(N3CCC4(CC3)CO[C@@H](C)[C@H]4N)n(C)c2=O)cc1 [Example 131]
9,0.016,C[C@@H]1OCC2(CCN(c3nc(N)c(-c4cccc(Cl)c4Cl)c(=O)n3C)CC2)[C@@H]1N [Example 132]
10,0.015,C[C@@H]1OCC2(CCN(c3ncc(Sc4cccc(Cl)c4Cl)c(=O)n3C)CC2)[C@@H]1N [Example 103]
11,0.015,C[C@@H]1OCC2(CCN(c3ccc(Sc4cccc(Cl)c4Cl)c(=O)[nH]3)CC2)[C@@H]1N [Example 120]
12,0.014,"Cc1ccc(-c2c(N)nc(N3CCC4(CC3)CO[C@@H](C)[C@H]4N)n(C)c2=O)cc1Cl [Example 123, 6-amino-2-((3S,4S)-4-amino-3-methyl-2-oxa-8-azaspiro[4.5]decan-8-yl)-5-(3-chloro-4-methylphenyl)-3-methylpyrimidin-4(3H)-one]"
13,0.014,C[C@H]1C[C@@H](N)C2(CCN(c3nc(N)c(-c4ccc(F)c(F)c4)c(=O)n3C)CC2)C1 [Example 127]
14,0.014,C[C@H]1C[C@@H](N)C2(CCN(c3nc(N)c(-c4cccc(Cl)c4Cl)c(=O)n3C)CC2)C1 [Example 129]
15,0.014,C[C@@H]1OCC2(CCN(c3nc(N)c(-c4ccc(SC(F)(F)F)cc4)c(=O)n3C)CC2)[C@@H]1N [Example 130]
16,0.012,C[C@H]1C[C@@H](N)C2(CCN(c3nc(N)c(-c4cccc(Cl)c4)c(=O)n3C)CC2)C1 [Example 125]
17,0.012,C[C@H]1C[C@@H](N)C2(CCN(c3nc(N)c(-c4cccc(F)c4F)c(=O)n3C)CC2)C1 [Example 126]
18,0.01,CCOc1nccc(Sc2cnc(N3CCC4(CC3)CO[C@@H](C)[C@H]4N)n(C)c2=O)c1Cl [Example 102]
19,0.01,Cc1ccc(-c2c(N)nc(N3CCC4(CC3)C[C@@H](C)C[C@H]4N)n(C)c2=O)cc1Cl [Example 124]
20,0.009,C[C@@H]1OCC2(CCN(c3ncc(Sc4cccc(Cl)c4Cl)c(=O)[nH]3)CC2)[C@@H]1N [Example 97]
21,0.008,COc1nccc(Sc2cnc(N3CCC4(CC3)CO[C@@H](C)[C@H]4N)n(C)c2=O)c1Cl [Example 105]
